The record followed here is EP4703354A1, “COMPOUND AS CCR6 ANTAGONIST, AND PHARMACEUTICAL COMPOSITION AND USE THEREOF” (Wuhan Createrna Science and Technology Co.,Ltd., priority 2023, dated 2024).

Broadly, the IC50 is the concentration that inhibits the measured activity by half. For orientation: bioavailability means the share of a dose that reaches the circulation, judged against a reference dose that is usually intravenous. Usually AUC(0-t) stands for the area under the concentration-time curve up to a stated or last time point. Low values mean low exposure, high ones high exposure. One may read the Cmax as the maximum level reached in the sampled fluid or tissue. The half-life is the time needed for the level to fall by half in the phase considered. A low value points to rapid decline.

Data set [1] deals with T1, human CXCR2 (Homo sapiens, UniProt P25025).
T1 construct: expressed in transfected cells; host or cells: HEK293
T1 sequence (P25025 1-360): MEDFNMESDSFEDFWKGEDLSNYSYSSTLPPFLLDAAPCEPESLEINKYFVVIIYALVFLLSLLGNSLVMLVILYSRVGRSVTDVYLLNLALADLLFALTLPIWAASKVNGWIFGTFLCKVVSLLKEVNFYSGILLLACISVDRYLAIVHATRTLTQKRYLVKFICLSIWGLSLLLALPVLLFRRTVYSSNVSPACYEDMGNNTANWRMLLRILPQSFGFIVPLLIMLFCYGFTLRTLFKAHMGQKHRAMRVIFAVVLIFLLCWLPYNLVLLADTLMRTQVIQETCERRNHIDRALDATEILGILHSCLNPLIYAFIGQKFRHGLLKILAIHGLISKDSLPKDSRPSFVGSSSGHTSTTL
As to the kind of experiment: human CXCR2 calcium flux activity (FLIPR, HEK293 cells stably expressing human CXCR2, IL-8 stimulation). In kind it is cell-based. The conditions noted are these: HEK293 cells stably expressing human CXCR2, EC80 human IL-8; read-out: CXCR2 inhibitory activity, IC50. Here is the method: The activity of the compounds was evaluated using HEK293 cells stably expressing human CXCR2 via the FLIPR platform. A 384-well black cell culture plate (Greiner, 781946) was used, with a seeding density of 20,000 cells/well, and incubated overnight at 37°C in a 5% CO2 incubator. The culture medium in the cell plate wells was removed, and 20 µL of Fluo-4 Direct™ Calcium Assay Buffer (Invitrogen, F10471, Component C), 20 µL of 2× Fluo-4 Direct™ Calcium Assay Reagent (Invitrogen, F10471, Component A) working solution, and 10 µL of 6× test compound working solution were sequentially added to each well. The cell plate was incubated in a 37 °C, 5% CO2 incubator for 50 min, followed by a 10 min incubation at room temperature. Additionally, a 6×EC80 human IL-8 (Sigma, SRP3311) working solution was prepared. After the incubation was completed, 10 µL/well of the 6×EC80 human IL-8 working solution was transferred to the corresponding cell wells using a FLIPR instrument, and the fluorescence signal changes at an excitation wavelength of 494 nm and an emission wavelength of 516 nm were recorded over 130 s. The difference between the maximum fluorescence signal (RFUMax) and the minimum fluorescence signal (RFUMin) was used as the output signal. The compound inhibition rate and the log value of the compound concentration were calculated, and a four-parameter fitting analysis was performed using GraphPad Prism 8 software to obtain the IC50 value of the test compound. Table 1. Inhibitory activity data of compounds against CCR6 and CXCR2
In general terms: A change in cytosolic calcium serves as a functional read-out for many receptors and channels.

The nature of data set [2]: in vivo pharmacokinetic study in SD rats. The conditions noted are these: male, rat, plasma; for bioavailability: 1 mg/kg PO vs 1 mg/kg IV, read-out: Oral bioavailability F (%); for AUC(0-t) / Cmax / half-life: 1 mg/kg. In a few lines:
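Male SD rats (180-200 g), 3 per route: single fasted oral gavage in 1% Tween 80 or tail-vein IV bolus in 50% PEG400. Orbital blood into EDTA-K2 sampled to 8 h; plasma analysed and PK parameters derived by non-compartmental analysis.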

Data set [3] has as its target T2, human CCR6 (Homo sapiens, UniProt P51684).
T2 construct: expressed in transfected cells; host or cells: HEK293
T2 sequence (P51684 1-374): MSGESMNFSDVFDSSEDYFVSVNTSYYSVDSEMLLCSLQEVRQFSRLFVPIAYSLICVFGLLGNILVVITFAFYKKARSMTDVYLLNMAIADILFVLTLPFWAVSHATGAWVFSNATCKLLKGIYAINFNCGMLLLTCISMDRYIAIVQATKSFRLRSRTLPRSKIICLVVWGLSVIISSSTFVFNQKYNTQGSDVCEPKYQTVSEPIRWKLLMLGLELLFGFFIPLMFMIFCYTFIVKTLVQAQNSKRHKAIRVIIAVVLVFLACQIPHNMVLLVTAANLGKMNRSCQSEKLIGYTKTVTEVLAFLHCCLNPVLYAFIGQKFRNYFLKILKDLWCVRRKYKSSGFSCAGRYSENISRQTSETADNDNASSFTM
As to the kind of experiment: human CCR6 calcium flux activity (FLIPR, HEK293 cells stably expressing human CCR6, CCL20 stimulation). Type of data set: cell-based. To be noted: for IC50: HEK293 cells stably expressing human CCR6, EC80 human MIP-3 alpha/CCL20, read-out: CCR6 inhibitory activity, IC50; for CCR6 selectivity: ratio of CXCR2 IC50 to CCR6 IC50. In a few lines:
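Compounds preincubated with Fluo-4 Direct-loaded cells 50 min at 37 °C, then 10 min at room temperature, before CCL20 challenge at EC80. Fluorescence (ex 494/em 516 nm) recorded 90 s; max−min signal gives inhibition, four-parameter fit yields IC50.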

As for `Cc1cccnc1[C@H](Nc1c(Nc2ccnc(C(=O)N(C)C)c2O)c(=O)c1=O)C1(C)CCCC1` [compound 018, (R)-3-hydroxy-N,N-dimethyl-4-((2-(((1-methylcyclopentyl)(3-methylpyridin-2-yl)methyl)amino)-3,4-dioxocyclobut-1-en-1-yl)amino)picolinamide], the IC50 in data set [1] came to 92000 nM. For the same compound, the bioavailability in data set [2] was determined as 49.1%. In data set [2] (IV), the AUC(0-t) was 1160 ng·h/mL and the Cmax is 2240 ng/mL. Further, in data set [2] (PO), the AUC(0-t) is 1710 ng·h/mL, the Cmax was 920 ng/mL and the half-life is 4.3 h. In data set [3], the IC50 worked out at 11 nM and the CCR6 selectivity was 8363.5.
Regarding `CN(C)C(=O)c1nccc(Nc2c(N[C@@H](c3nc(F)ccc3F)C3(C)CCCC3)c(=O)c2=O)c1O` [compound 023, (R)-4-((2-(((3,6-difluoropyridin-2-yl)(1-methylcyclopentyl)methyl)amino)-3,4-dioxocyclobut-1-en-1-yl)amino)-3-hydroxy-N,N-dimethylpicolinamide], the IC50 in data set [1] is 204 nM. Further, the bioavailability in data set [2] came out at 30.5%. In data set [2] (IV), this compound came in with an AUC(0-t) of 2020 ng·h/mL and a Cmax of 4130 ng/mL. In data set [2] (PO), this compound had an AUC(0-t) of 616 ng·h/mL, a Cmax of 335 ng/mL and a half-life of 2.08 h. In data set [3], the half-maximal inhibitory concentration (IC50) was 0.9 nM and the CCR6 selectivity stood at 227.0.
As to `CN(C)C(=O)c1nccc(Nc2c(N[C@@H](c3nc(Cl)ccc3F)C3(C)CCCC3)c(=O)c2=O)c1O` [compound 053, (R)-4-((2-(((6-chloro-3-fluoropyridin-2-yl)(1-methylcyclopentyl)methyl)amino)-3,4-dioxocyclobut-1-en-1-yl)amino)-3-hydroxy-N,N-dimethylpicolinamide], the IC50 in data set [1] is 1750 nM. Further, the bioavailability in data set [2] was found to be 33.1%. In data set [2] (IV), this compound had an AUC(0-t) of 1800 ng·h/mL and a Cmax of 3890 ng/mL. Besides, in data set [2] (PO), the AUC(0-t) was 596 ng·h/mL, the peak level (Cmax) was 380 ng/mL and the half-life is 2.33 h. In addition, in data set [3], the IC50 was 1.5 nM and the CCR6 selectivity is reported as 1163.3.
As for `CNC(=O)c1c(Cl)ccc(Nc2c(N[C@@H](c3ncccc3C)C3(C)CCCC3)c(=O)c2=O)c1O` [compound 064, (R)-6-chloro-2-hydroxy-N-methyl-3-((2-(((1-methylcyclopentyl)(3-methylpyridin-2-yl)methyl)amino)-3,4-dioxocyclobut-1-en-1-yl)amino)benzamide], the IC50 in data set [1] stood at 11200 nM. Also, in data set [3], the IC50 was 6.5 nM and the CCR6 selectivity is 1730.2.
For the compound `Cc1cc(F)cnc1[C@H](Nc1c(Nc2ccnc(C(=O)N(C)C(C)C)c2O)c(=O)c1=O)C1(C)CCCC1` [compound 066, (R)-4-((2-(((5-fluoro-3-methylpyridin-2-yl)(1-methylcyclopentyl)methyl)amino)-3,4-dioxocyclobut-1-en-1-yl)amino)-3-hydroxy-N-isopropyl-N-methylpicolinamide], the IC50 in data set [1] came to 47900 nM. In data set [3], the IC50 came to 19 nM and the CCR6 selectivity is recorded as 2522.7.
On to `CN(C)C(=O)c1nccc(Nc2c(N[C@@H](c3nc(CF)ccc3F)C3(C)CCCC3)c(=O)c2=O)c1O` [compound 094, (R)-4-((2-(((3-fluoro-6-(fluoromethyl)pyridin-2-yl)(1-methylcyclopentyl)methyl)amino)-3,4-dioxocyclobut-1-en-1-yl)amino)-3-hydroxy-N,N-dimethylpicolinamide], for which, in data set [1], the IC50 worked out at 192 nM. In addition, in data set [2], the bioavailability amounted to 22.8%. In data set [2] (IV), this compound showed an AUC(0-t) of 1210 ng·h/mL, a Cmax of 4460 ng/mL and a half-life of 0.37 h. Besides, in data set [2] (PO), the AUC(0-t) amounted to 276 ng·h/mL, the Cmax worked out at 208 ng/mL and the half-life is 2.18 h. In addition, in data set [3], the IC50 turned out to be 1.1 nM and the CCR6 selectivity was found to be 174.73.
As to `CN(C)C(=O)c1nccc(Nc2c(N[C@@H](c3cccc(C(F)F)n3)C3(C)CCCC3)c(=O)c2=O)c1O` [compound 107, (R)-4-((2-(((6-(difluoromethyl)pyridin-2-yl)(1-methylcyclopentyl)methyl)amino)-3,4-dioxocyclobut-1-en-1-yl)amino)-3-hydroxy-N,N-dimethylpicolinamide], the IC50 in data set [1] stood at 745 nM. Further, in data set [3], the IC50 was found to be 3.8 nM and the CCR6 selectivity turned out to be 196.0.
`CN(C)C(=O)c1nccc(Nc2c(N[C@@H](c3nc(C(F)F)ccc3F)C3(C)CCCC3)c(=O)c2=O)c1O` [compound 109, (R)-4-((2-(((6-(difluoromethyl)-3-fluoropyridin-2-yl)(1-methylcyclopentyl)methyl)amino)-3,4-dioxocyclobut-1-en-1-yl)amino)-3-hydroxy-N,N-dimethylpicolinamide]: in data set [1], the IC50 was 133 nM. Moreover, the bioavailability in data set [2] stood at 61.8%. In data set [2] (IV), the AUC(0-t) was 786 ng·h/mL, the peak level (Cmax) was 3140 ng/mL and the half-life was 0.5 h. In data set [2] (PO), the AUC(0-t) was determined as 485 ng·h/mL, the concentration peaked (Cmax) at 264 ng/mL and the half-life was 2.07 h. Further, in data set [3], the IC50 is 2.4 nM and the CCR6 selectivity came out at 55.5.
As for `CN(C)C(=O)c1nccc(Nc2c(N[C@@H](C#CC3CCC3)C3(C)CCCC3)c(=O)c2=O)c1O` [compound 116, (R)-4-((2-((3-cyclobutyl-1-(1-methylcyclopentyl)prop-2-yn-1-yl)amino)-3,4-dioxocyclobut-1-en-1-yl)amino)-3-hydroxy-N,N-dimethylpicolinamide], the IC50 in data set [1] came to 379 nM. Further, in data set [3], the IC50 turned out to be 28.9 nM and the CCR6 selectivity came to 13.1.
